Source: patent US8304408B2, “Wnt signaling inhibitors, and methods for making and using them” (The Regents of the University of California, priority 2007, dated 2012)
≈ marks a conversion by molar mass, not a printed value.

Assays:
[1] = test system: TCF/LEF dependent reporter gene (wnt/beta-catenin signaling) in HEK293 cells; assay: Top-flash assay: HEK293 cells transfected with a TCF/LEF dependent reporter gene; format: cell-based; details: for inhibition of wnt-signaling path in HEK293 reporter assay: even at concentrations of 50 uM
Description: FIG. 2 in graphic form illustrates data comparing inhibition of beta-catenin in a “Top-flash assay.” In this assay HEK 293 cells were transfected with a TCF/LEF dependent reporter gene and expression plasmid for Dsh. After overnight incubation, the cells were treated with the indicated amounts of debromohymenialdesine (“MC-001”, or dBHD, or dbHD), which is compound I in FIG. 1, analog II and III, or vehicle alone, after which the reporter gene activity was measured. All cells were also transfected with a reporter gene control for testing the transfection efficiency. In FIG. 2, the first pair of bars (to the left, closest to the y, or “fold induction”, axis) is DMSO, then moving right, the second pair of bars is 5 μM debromohymenialdesine, or dbHD (compound I of FIG. 1), then 10 μM dbHD, then 20 μM dbHD, then 50 μM compound II of FIG. 1, then 50 μM compound III of FIG. 1.
A dose response curve for debromohymenialdesine, or “MC-001”, or dbHD (or dBHD), (compound I of FIG. 1) from the HEK293 cell line assay is shown in FIG. 3. The curve is well behaved showing a relatively steep sigmoidal inhibition-concentration profile with an IC50 value of 2 uM.

normal HSC = assay: Replating of normal HSC; format: cell-based; details: at doses that inhibited CML HSC and GMP
Description: (§1) On day 10, individual colonies were plucked and replicated in new methylcellulose and the replating efficiency was determined.

[2] = log P (partition coefficient); format: physicochemical
Storage stability = format: physicochemical; details: at RT
Solubility in water = format: physicochemical
[3] = test system: GMP from advanced phase CML; assay: Replating efficiency of CML GMP; format: cell-based; details: replating efficiency after day 10 colony replating in methylcellulose
Description: as §1

BALB/C mice = assay: Toxicity tests in mice; format: in vivo; details: for toxic / adverse effects in mice: doses up to 100 mg/kg
[4] = test system: chronic myelogenous leukemia stem cell (CML HSC); assay: Replating efficiency (self-renewal) of CML hematopoietic stem cells; format: cell-based; details: for self-renewal / replating efficiency of leukemia stem cells: 2 uM drug concentration; for inhibition of CML HSC replating: replating efficiency after day 10 colony replating in methylcellulose
Description: as §1

For `NC1=NC(=O)/C(=C2\CCNC(=O)c3[nH]c(Br)cc32)N1` [Hymenialdesine, hymenialdesine, reference compound], which “inhibition of wnt-signaling path in HEK293 reporter assay” value (“inhibition of wnt-signaling path” for short) [1] is on record?
The value was “did not inhibit”.

With `NC1=NC(=O)/C(=C2\CCNC(=O)c3[nH]ccc32)N1` [debromohymenialdesine, (4Z)-4-(2-amino-5-oxo-3,5-dihydro-4H-imidazol-4-ylidene)-4,5,6,7-tetrahy-dropyrrolo(2,3-c)azepin-8(1H)-one] as the molecule, how does the “effect on normal HSC replating” value (normal HSC) read?
The value was “spared”.

What about the logP [2] of the same molecule?
The logP was -0.58.

And the “inhibition of wnt-signaling in HEK293 cells transfected with a TCF/LEF dependent reporter gene” value [1]?
Its value is “inhibited”.

What about the IC50 ([1]; Homo sapiens, HEK293 cells, TCF/LEF dependent reporter gene, read-out: IC50 from dose response curve, HEK293 cell line assay) of the same molecule?
The IC50 was 2000 nM.

What about the “activity of synthetically obtained compound versus natural product” value ([1]; compound made by total synthesis, cell based reporter system) of the same molecule?
Its value is “comparable to the natural product”.

And the Storage stability (Storage stability)?
Its Storage stability is “several months”.

What about the solubility (Solubility in water) of the same molecule?
Its solubility is 22 µg/mL (≈ 89.7 µM).

And the “inhibition of CML GMP replating” value [3]?
The value was “inhibited”.

And the “toxic / adverse effects in mice” value (BALB/C mice; listed as MC-001)?
The value was “no adverse affects”.

What about the “toxic / adverse effects in mice” value (BALB/C mice; listed as dBHD) of the same molecule?
Its value is “no toxic effects”.

And the tolerability in mice (BALB/C mice; mouse, in vivo)?
Its tolerability in mice is “well tolerated”.

What about the “self-renewal / replating efficiency of leukemia stem cells” value [4] of the same molecule?
The value was “completely abrogated”.

And the “self-renewal / replating efficiency of leukemia stem cells” value ([4]; listed as MC-001)?
Its value is “completely abrogates”.

What about the “inhibition of CML HSC replating” value [4] of the same molecule?
Its value is “inhibited”.

With `NC1=N[C@]23CCCN2C(=O)c2cc(Br)c(Br)n2[C@@H]3N1` [dibromophakelin, reference compound] as the molecule, how does the “inhibition of wnt-signaling path” value [1] read?
The value was “did not inhibit”.

With `c1ccc2nc3ccccc3c-2nc1` [indoloazepine, reference compound] as the molecule, how does the “inhibition of wnt-signaling path” value [1] read?
Its value is “did not inhibit”.

B1: Recombinant Dkk1: recombinant Dkk1, a Wnt inhibitor used as comparator (protein, UniProt O94907 32-266, looked up)
Dickkopf-related protein 1: TLNSVLNSNAIKNLPPPLGGAAGHPGSAVSAAPGILYPGGNKYQTIDNYQPYPCAEDEECGTDEYCASPTRGGDAGVQICLACRKRRKRCMRHAMCCPGNYCKNGICVSSDQNHFRGEIEETITESFGNDHSTLDGYSRRTTLSSKMYHTKGQEGSVCLRSSDCASGLCCARHFWSKICKPVLKEGQVCTKHRRKGSHGLEIFQRCYCGEGLSCRIQKDHHQASNSSRLHTCQRH
Which “inhibition of CML HSC replating” value [4] does the source give for B1 here?
The value was “did not inhibit”.
